From patent publication US9724388B2, “FGF-18 compound dosing regimen” (MERCK PATENT GMBH, priority 2014, dated 2017)
Like-named read-outs stand apart in the source and are kept apart here.

What was measured:
[1] = test system: medial meniscal tear in the right knee joint; format: in vivo, rat; details: for swelling scores vs vehicle controls: days 24-29, 31, and 36-43
Protocol: Male Lewis rats underwent surgery to induce a medial meniscal tear in the right knee joint. Animals were dosed i.a. with FGF-18 (10 μg/joint) on days 21, 28, and 35 and dosed orally with diclofenac (either 1 mg/kg or 3 mg/kg) or vehicle on days 21-23, 28-30, and 35-37, then terminated on day 42 or day 63. Serum was collected and evaluated for alpha 2 macroglobulin (α2MG) levels on days −3, 21, 42, and 63. α2MG is an inflammation serum biomarker. The link between α2MG and inflammation has already been shown (Kuribayashi et al., 2013).

RA patients = details: cited from earlier work
[2] = test system: Primary articular porcine chondrocytes; experiment: Porcine chondrocyte proliferation with or without IL1α challenge; format: cell-based, pig; details: for restoration of rhFGF-18 proliferative activity in IL1α-challenged chondrocytes: anakinra 100 ng/mL with rhFGF-18 100 ng/mL, IL1α 10 ng/mL, direct and delayed treatments
Protocol: Porcine chondrocytes were isolated from the cartilage of a femoral head of a pig hip (pigs were approximately one year old). After dissection of the joints, the cartilage was harvested and digested 45 minutes with collagenase 0.25% (1/10 dilution of collagenase NBG4 2.5% in HAM's F12) at room temperature. The loosened cells were discarded and the cartilage further digested overnight with collagenase 0.1% (1/25 dilution of collagenase NBG4 2.5% in HAM's F12) at 37° C. to extract the chondrocytes. For this study, the chondrocytes were cultured in monolayer.
Primary articular porcine chondrocytes were stimulated or not with 10 ng/mL IL1α and were either treated immediately or 6 hours later with anakinra 100 ng/mL and/or trFGF-18 100 ng/mL. Each condition was performed in 4 or 6-plicates. As a control, cells were also cultured with anakinra alone, trFGF-18 alone or in the absence of any treatment (medium).
Pre-culture: After cell isolation porcine chondrocytes were inoculated at 20,000 cells/cm^2 and cultivated for one week in complete HAM's F12. Cells were then harvested with accutase, counted and used as described below.
For cells treated directly with anakinra: Chondrocytes were inoculated in a 24-well plate at 15,000 cells/well in 0.5 mL of complete HAM's F12. Then 0.25 mL of trFGF-18 400 ng/mL and/or 0.25 mL of anakinra 400 ng/mL were added to the cells. In the challenged samples, 10 μL of IL1α at 1,000 ng/mL were also added to the cells. trFGF-18, anakinra and IL1α were all diluted in complete HAM's F12. The final volume in the culture well was adjusted at 1 mL with complete HAM's F12. Final concentrations were 10 ng/mL IL1α, 100 ng/mL trFGF-18 and 100 ng/mL anakinra and the total culture time was eight days. A complete medium change was performed after four days. N=4.
For cells treated with anakinra and trFGF-18 6 hours after the IL1α challenge: Chondrocytes were inoculated in a 24-well plate at 15,000 cells/well in 1 mL of complete HAM's F12 containing or not containing IL1α 10 ng/mL. After 6 hours the medium was removed and replaced with 0.25 mL trFGF-18 400 ng/mL and/or 0.25 mL of anakinra 400 ng/mL. In the challenged samples, 0.25 mL of IL1α at 40 ng/mL was also added to the cells. trFGF-18, anakinra and IL1α were all diluted in complete HAM's F12. The final volume in the culture well was adjusted at 1 mL with complete HAM's F12. Final concentrations were 10 ng/mL IL1α, 100 ng/mL trFGF-18 and 100 ng/mL anakinra and the total culture time was eight days. A complete medium change was performed after four days. N=6.
After eight days of culture, cells were harvested with accutase and resulting cell suspensions were analyzed for cell concentration and cell viability with a ViCell™ cell analyzer (from Beckman Coulter). Statistical analysis consisted in a 1-way ANOVA followed by a Dunnett post-hoc analysis.

OA symptoms = details: Chevalier et al., 2009, cited from earlier work

| Compound | knee caliper measurements ([1]; diclofenac 1 mg/kg orally with FGF-18, any other time point) | knee caliper measurements ([1]; diclofenac 1 mg/kg orally with FGF-18, day 42) | swelling scores vs vehicle controls ([1]; diclofenac 1 mg/kg orally with FGF-18) | knee caliper measurements ([1]; diclofenac 3 mg/kg orally with FGF-18, any other time point) | knee caliper measurements ([1]; diclofenac 3 mg/kg orally with FGF-18, day 42) | swelling scores vs vehicle controls ([1]; diclofenac 3 mg/kg orally with FGF-18) | knee swelling (clinical observations and caliper measurements) ([1]; diclofenac 1 or 3 mg/kg with FGF-18) | joint damage in RA patients (RA patients; Bresnihan, 2002, St. Clair) | pain in RA patients (RA patients; Mertens et al., 2009) | restoration of rhFGF-18 proliferative activity in IL1α-challenged chondrocytes [2] | restoration of rhFGF-18 proliferative activity in IL1α-challenged chondrocytes ([2]; listed as Anakinra) | effect on chondrocyte proliferation ([2]; anakinra alone, 100 ng/mL) | improvements in OA symptoms compared with placebo (OA symptoms) | pain versus placebo in OA (OA symptoms; anakinra 150 mg) |
| --- | --- | --- | --- | --- | --- | --- | --- | --- | --- | --- | --- | --- | --- | --- |
| O=C(O)Cc1ccccc1Nc1c(Cl)cccc1Cl [diclofenac, 2-(2,6-dichloranilino) phenylacetic acid] | not significantly affected | significantly reduced | significantly reduced | not significantly affected | significantly reduced | significantly reduced | significantly reduced | – | – | – | – | – | – | – |
| anakinra: recombinant, nonglycosylated form of human interleukin-1 receptor antagonist (IL-1Ra), SEQ ID NO: 3 | – | – | – | – | – | – | – | reduction in frequency and severity of joint damage | pain reduction | fully block | fully restore | no effect | not significantly associated | a tendency toward pain reduction |
